System: Cholesterinesterase
Experiment: Cholesterol esterase activity: rate of ester cleavage, continuous-flow apparatus with photometric cholesterol indicator reaction (546 nm)
Format: biochemical
Procedure: Zum Nachweis der aktivierenden Wirkung der zu untersuchenden synergistischen Kombinationen der Erfindung auf Cholesterinesterase wurde die in Fig. 1 dargestellte Apparatur verwendet.
Aus einem temperierbaren Reaktionsgefäß 1 (25°C), in dem sich die Esterspaltung vollzieht, werden über eine Schlauchpumpe 2 durch einen Förderschlauch 3 definierten Querschnitts kontinuierlich o,32 ml Gemisch/Minute entnommen. über die gleiche Pumpe wird durch einen zweiten Schlauch 4 aus einem Vorratsgefäß 5 ebenfalls kontinuierlich 1,o ml Indikatorlösung/Minute gefördert, hinter der Pumpe 2 mit einem Luftstrom 6 von konstant o,6 ml Luft/ Minute zusammengeführt und damit segmentiert und dann mit dem zuvor beschriebenen Reaktionsgemischstrom vereinigt. Der Gesamtstrom passiert daraufhin zwei Glasschlangen 7, wodurch eine Durchmischung der Flüssigkeiten und die notwendige Reaktionszeit für die Indikatorreaktion bis zum Endpunkt gewährleistet wird. Durch Abziehen eines Stroms von 1,2 ml/Minute unmittelbar vor der Küvette durch Schlauchleitung 8 senkrecht nach oben werden die Luftblasen wieder entfernt. Der nicht segmentierte Reststrom wird zur photometrischen Messung (bei 546 nm) in eine Durchflußküvette (1 cm Schichtdicke) geleitet und die Meßwerte werden vom Schreiber 1o registriert.
Wegen der gleichbleibenden Bedingungen bezüglich der Indikatorreaktion sind Änderungen in Höhe und Verlauf des Meßsignals allein von den Vorgängen im Reaktionsgefäß abhängig. Findet dort eine Esterspaltung statt, so bewirkt deren kinetischer Verlauf eine Zunahme des Meßsignals, welches als positive Steigung mit dem Schreiber 1o registriert wird. Die Steilheit des Anstiegs ist ein Maß für die Reaktionsgeschwindigkeit und damit für die Cholesterinesteraseaktivität im Reaktionsansatz.
Wegen des getrennten Ablaufs von Esterspaltung und Indikatorreaktion ist eine gegenseitige Beeinflussung ausgeschlossen. Natürlich wären auch andere Indikatorsysteme einschließlich der Sauerstoffelektrode verwendbar.
Die Indikatorlösung setzt zunächst freies Cholesterin zu Cholestenon und H202 um. Das entstandene H202 wird mit Phenol und 4-Aminoantipyrin zu einem roten Farbstoff umgesetzt, dessen Absorption photometrisch gemessen wird. Die Menge des entstehenden Farbstoffs ist der Konzentration des freien Cholesterins proportional. Die Konzentration an freiem Cholesterin setzt sich aus dem bereits im Substrat vorhandenen Anteil an freiem Cholesterin sowie aus dem durch die Esterase freigesetzten Cholesterin zusammen.
Start mit 50 µl einer Esterase-Stocklösung, woraufhin o,oo3 U/ml Esterase im Ansatz vorliegen. Bei Aktivitätsabstufungen wurde diese Menge variiert.
Nach erfolgtem Start und Durchmischung wird bei laufender Pumpe 2 der Förderschlauch 3 in die Lösung im Reaktionsgefäß 1 für etwa 1o Minuten eingetaucht. Anschließend wird zur besseren Trennung der Signale in jeweils etwa 1o Segmenten wechselweise Luft und bidest. Wasser angesaugt. Daraufhin kann die nächste Bestimmung erfolgen.

Oc1ccccc1 [Phenol]
Resultierende Geschwindigkeit gegenüber Vergleichswert (4o mM (ca. o,35 Gew.-%) additive, 1o %o Genapol OX-1oo/1o %o Na-Caprylat, o,oo3 U/ml Cholesterinesterase, o,1 M Kaliumphosphatpuffer, pH 7,o with adjuvant vs o,3 M buffer without adjuvant): Der Vergleichswert wird erreicht

CC(C)CC(C)O (stereo not shown) [4-Methylpentanol-(2)]
Resultierende Geschwindigkeit gegenüber Vergleichswert (1,4 Vol.-% additive, 15 %o Tergitol NPX, 0,003 U/ml Cholesterinesterase, o,1 M Kaliumphosphatpuffer, pH 7,o with adjuvant vs o,3 M buffer without adjuvant, 25°C): Der Vergleichswert wird übertroffen
Resultierende Geschwindigkeit gegenüber Vergleichswert (1 Vol.-% additive, 0,3 M Kaliumphosphatpuffer, pH 7,o, reduced Genapol OX-1oo/Natriumcaprylat concentration with adjuvant vs detergent concentration optimum without adjuvant, o,oo3 U/ml Cholesterinesterase): Der Vergleichswert wird erreicht

OC1CCCCC1 [Cyclohexanol]
Resultierende Geschwindigkeit gegenüber Vergleichswert (1 Vol.-% additive, o,3 M Kaliumphosphatpuffer, pH 7,o, reduced Tergitol NPX concentration with adjuvant vs detergent concentration optimum without adjuvant, o,oo3 U/ml Cholesterinesterase): Der Vergleichswert wird deutlich übertroffen
Resultierende Geschwindigkeit gegenüber Vergleichswert (2 Vol.-% additive (example 6.3), 15 %o Tergitol NPX, 0,003 U/ml Cholesterinesterase, o,1 M Kaliumphosphatpuffer, pH 7,o with adjuvant vs o,3 M buffer without adjuvant, 25°C): Der Vergleichswert wird deutlich übertroffen
Resultierende Geschwindigkeit gegenüber Vergleichswert (2 Vol.-% additive, 0,3 M Kaliumphosphatpuffer, pH 7,o, reduced Genapol OX-1oo/Natriumcaprylat concentration with adjuvant vs detergent concentration optimum without adjuvant, o,oo3 U/ml Cholesterinesterase): Der Vergleichswert wird übertroffen
Resultierende Geschwindigkeit gegenüber Vergleichswert (2 Vol.-% additive, 1o %o Genapol OX-1oo/1o %o Na-Caprylat, o,oo3 U/ml Cholesterinesterase, o,1 M Kaliumphosphatpuffer, pH 7,o with adjuvant vs o,3 M buffer without adjuvant): Der Vergleichswert wird übertroffen

OCC(Cl)(Cl)Cl [2,2,2-Trichloräthanol]
Resultierende Geschwindigkeit gegenüber Vergleichswert (1 Vol.-% additive, 1o %o Genapol OX-1oo/1o %o Na-Caprylat, o,oo3 U/ml Cholesterinesterase, o,1 M Kaliumphosphatpuffer, pH 7,o with adjuvant vs o,3 M buffer without adjuvant): Der Vergleichswert wird übertroffen
Resultierende Geschwindigkeit gegenüber Vergleichswert (o,1 Vol.-% additive, o,3 M Kaliumphosphatpuffer, pH 7,o, reduced Tergitol NPX concentration with adjuvant vs detergent concentration optimum without adjuvant, o,oo3 U/ml Cholesterinesterase): Der Vergleichswert wird übertroffen
Resultierende Geschwindigkeit gegenüber Vergleichswert (o,3 Vol.-% additive, 0,3 M Kaliumphosphatpuffer, pH 7,o, reduced Genapol OX-1oo/Natriumcaprylat concentration with adjuvant vs detergent concentration optimum without adjuvant, o,oo3 U/ml Cholesterinesterase): Der Vergleichswert wird deutlich übertroffen

Reference: patent EP0016946A1, “Process and reagent for the activation of cholesterol esterase” (BOEHRINGER MANNHEIM GMBH, priority 1979, dated 1980)
